From patent US20160318933A1, “FUSED PYRAZOLE DERIVATIVE” (SUMITOMO DAINIPPON PHARMA CO., LTD., priority 2013, published 2016)

Molecular target: T1, human brain-derived dopamine D4 receptor (Homo sapiens, UniProt P21917)
T1 construct: expressed in transfected cells; host or cells: CHO (CHO-K1) or HEK293 cells
T1 sequence (P21917 1-419): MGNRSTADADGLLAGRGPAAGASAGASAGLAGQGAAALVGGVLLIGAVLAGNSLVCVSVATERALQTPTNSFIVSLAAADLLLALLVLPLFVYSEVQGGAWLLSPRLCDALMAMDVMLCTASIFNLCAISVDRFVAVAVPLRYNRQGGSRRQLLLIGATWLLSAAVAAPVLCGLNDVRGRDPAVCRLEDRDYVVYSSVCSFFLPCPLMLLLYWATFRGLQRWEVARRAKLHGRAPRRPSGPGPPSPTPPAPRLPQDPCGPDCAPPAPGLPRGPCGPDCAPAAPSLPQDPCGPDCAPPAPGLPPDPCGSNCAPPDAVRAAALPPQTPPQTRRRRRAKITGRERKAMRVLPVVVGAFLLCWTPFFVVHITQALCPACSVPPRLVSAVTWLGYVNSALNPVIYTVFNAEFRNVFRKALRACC
Assay: Agonistic activity in G protein dependent pathway of dopamine D4 receptor (aequorin intracellular calcium luminescence, FDSS)
Assay type: cell-based
Conditions: for EC50: concentration required to achieve a 50% response of Emax, CHO-K1 or HEK293 cells transfected with D4 receptor; for Emax: read-out: Maximal activity on D4 receptor (%)
From the text: The G protein dependent pathway is a pathway for transmitting signals in cells via a second messenger by stimulating a G protein through the binding of guanosine triphosphate (GTP) to the G protein. When GPCRs are activated by the binding of a ligand, a G protein binds to the GPCRs, and thereby GTP binds to a Gα subunit that is one of G protein subunits and a Gγβ subunit is dissociated. The activated Gα subunit regulates intracellular cAMP levels by the activation or inhibition of an adenylate cyclase, and regulates intracellular calcium levels by the activation of phospholipase C to transmit signals in cells.
The agonistic activities of the present compounds in the G protein dependent pathway were evaluated on the basis of intracellular calcium levels as follows. CHO-K1 or HEK293 cell lines transfected with D4 receptor genes were seeded in a 384-well plate, and incubated in a CO2 incubator at 37° C. for 24 hours, and then a solution of the present compound in DMSO was added into cells preloaded with coelenterazine to measure the change in luminescent signals with a FDSS (Hamamatsu Photonics K.K.). […] The agonistic activity of the present compound was calculated according to the measured luminescent signals, as the maximal activity (Emax) of the present compound. EC50 value was calculated as the concentration of the present compound required to achieve a 50% response of Emax.

| Structure (SMILES) | EC50 [nM] | Emax [%] |
| --- | --- | --- |
| Cc1cccnc1-c1cc2n(n1)CCN(Cc1cnc(C(F)F)nc1)C2 [Example 196] | 55 | 29 |
| Cc1ccc(CN2CCn3nc(-c4ncccc4F)c(C)c3C2)cn1 [Example 121] | 46 | 84 |
| Cc1ncc(CN2CCn3nc(-c4ccccn4)c(F)c3C2)c(N)n1 [Example 141] | 87 | 56 |
| Cc1cccnc1-c1nn2c(c1C)CN(Cc1ccc(C(F)(F)F)cc1)CC2 [Example 71] | 88 | 53 |
| Cc1cccnc1-c1cc2n(n1)CCN(Cc1cn3c(n1)CCCC3)C2 [Example 87] | 62 | 47 |
| Cc1ccc(CN2CCn3nc(-c4ccccn4)cc3C2)c(N)n1 [Example 19] | 54 | 63 |
| Cc1ncc(CN2CCn3nc(-c4ncccc4C)cc3C2)c(N)n1 [Example 30, 2-Methyl-5-{[2-(3-methylpyridin-2-yl)-6,7-dihydropyrazolo[1,5-a]pyrazin-5(4H)-yl]methyl}pyrimidine-4-amine] | 79 | 53 |
| Cc1ncc(CN2CCn3nc(-c4ncccc4C)cc3C2)cn1 [Example 170] | 152 | 48 |
| Cc1cccnc1-c1cc2n(n1)CCN(Cc1ccc(C(F)(F)F)nc1N)C2 [Example 105] | 69 | 79 |
| Cn1nc(CN2CCn3nc(-c4ncccc4C(F)(F)F)cc3C2)c2ccccc21 [Example 153] | 94 | 57 |
| Cc1cnc(N)c(CN2CCn3nc(-c4ncccc4C)cc3C2)c1 [Example 103] | 127 | 53 |
| Cc1ccncc1CN1CCn2nc(-c3ncccc3C)cc2C1 [Example 111] | 159 | 22 |
| Cc1cccnc1-c1cc2n(n1)CCN(Cc1cnc3c(c1)CCCC3)C2 [Example 186] | 51 | 44 |
| Cc1cccnc1-c1cc2n(n1)CCN(Cc1ccc(F)c(C)n1)C2 [Example 135] | 49 | 54 |
| c1ccc(-c2cc3n(n2)CCN(Cc2cccc4[nH]cnc24)C3)nc1 [Example 14] | 84 | 46 |
| Cc1cccc(CN2CCn3nc(-c4ncccc4C(F)(F)F)cc3C2)n1 [Example 152] | 107 | 74 |
| Cc1c(-c2ccccn2)nn2c1CN(Cc1ccc(C(F)(F)F)cc1)CC2 [Example 74] | 73 | 65 |
| Cn1nc2ccccc2c1CN1CCn2nc(-c3ncccc3F)cc2C1 [Example 168] | 82 | 65 |
| Cn1c(CN2CCn3nc(-c4ncccc4F)cc3C2)nc2ccccc21 [Example 164] | 55 | 64 |
| Cc1ncc(CN2CCn3nc(-c4ncccc4C)cc3C2)c(C)n1 [Example 190, 5-[(2,4-Dimethylpyrimidin-5-yl)methyl]-2-(3-methylpyridin-2-yl)-4,5,6,7-tetrahydropyrazolo[1,5-a]pyrazine] | 60 | 61 |
| Cc1cccnc1-c1cc2n(n1)CCN(Cc1cc3c(cn1)OCC3)C2 [Example 185] | 82 | 51 |
| Cc1cccnc1-c1cc2n(n1)CCN(Cc1nn(C)c3ccccc13)C2 [Example 158] | 65 | 74 |
| Cc1cccnc1-c1cc2n(n1)CCN(Cc1ccc(Cl)cn1)C2 [Example 97] | 49 | 85 |
| Cc1cccnc1-c1cc2n(n1)CCN(Cc1cccc(C(F)(F)F)c1)C2 [Example 60] | 99 | 59 |

Now those with a lower EC50, led by results:

| EC50 [nM] | Emax [%] | Structure (SMILES) |
| --- | --- | --- |
| 42 | 62 | Cc1c(-c2ccccn2)nn2c1CN(Cc1ccc(CF)nc1)CC2 [Example 134] |
| 34 | 58 | Cc1cccnc1-c1cc2n(n1)CCN(Cc1ccc(OC(F)(F)F)cc1C#N)C2 [Example 52] |
| 33 | 65 | Cc1ccc(CN2CCn3nc(-c4ncccc4C)c(C)c3C2)cc1 [Example 72] |
| 26 | 98 | Cc1cccnc1-c1cc2n(n1)CCN(Cc1n[nH]c3ccc(F)cc13)C2 [Example 44] |
| 43 | 43 | Cc1cccnc1-c1cc2n(n1)CCN(Cc1cc3c(cn1)CCC3)C2 [Example 181] |
| 25 | 71 | CN1Cc2ccc(CN3CCn4nc(-c5ccccn5)cc4C3)cc2C1 [Example 23, 5-[(2-Methyl-2,3-dihydro-1H-isoindol-5-yl)methyl]-2-(pyridin-2-yl)-4,5,6,7-tetrahydropyrazolo[1,5-a]pyrazine] |
| 44 | 50 | CC(C)c1ncc(CN2CCn3nc(-c4ncccc4F)cc3C2)cn1 [Example 204] |
| 5.3 | 73 | Cc1cccnc1-c1cc2n(n1)CCN(Cc1ccc3cn[nH]c3c1)C2 [Example 34] |
| 30 | 58 | Cc1cccnc1-c1nn2c(c1C)CN(Cc1ccccc1)CC2 [Example 73] |
| 36 | 68 | Cc1ccc(CN2CCn3nc(-c4ncccc4F)cc3C2)nc1 [Example 109] |
| 10 | 99 | Cc1ccc(CN2CCn3nc(-c4ncccc4C)cc3C2)cc1 [Example 53] |
| 44 | 63 | Cc1cc(CN2CCn3nc(-c4ncccc4C)cc3C2)cnc1C [Example 188] |
| 44 | 59 | Cc1ccc(CN2CCn3nc(-c4ccccn4)c(C)c3C2)cc1 [Example 76] |
| 22 | 65 | Fc1cccnc1-c1cc2n(n1)CCN(Cc1c[nH]c3ccccc13)C2 [Example 165] |
| 0.5 | 62 | Cc1cccc(CN2CCn3nc(-c4ccccn4)cc3C2)c1 [Example 27] |
| 1.1 | 77 | Cc1ccc(CN2CCn3nc(-c4ncccc4C)cc3C2)cc1C#N [Example 99] |
| 38 | 48 | N#Cc1ccc(CN2CCn3nc(-c4ccccn4)cc3C2)cc1 [Example 29] |
| 10 | 82 | Cc1cccnc1-c1cc2n(n1)CCN(Cc1cccc(CF)n1)C2 [Example 137] |
| 23 | 98 | Cc1ccc(CN2CCn3nc(-c4ncccc4F)c(C)c3C2)nc1 [Example 120] |
| 41 | 39 | Cc1ccc(CN2CCn3nc(-c4ncccn4)cc3C2)cc1 [Example 176] |
| 20 | 71 | Fc1cccnc1-c1cc2n(n1)CCN(Cc1ccc3c(n1)CCCC3)C2 [Example 130] |
| 20 | 71 | c1ccc(CN2CCn3nc(-c4ccccn4)cc3C2)cc1 [Example 1, 5-Benzyl-2-(pyridin-2-yl)-4,5,6,7-tetrahydropyrazolo[1,5-a]pyrazine] |
| 37 | 61 | Cc1c(-c2ccccn2)nn2c1CN(Cc1ccc(C#N)cc1)CC2 [Example 75] |
| 37 | 54 | Cc1cccnc1-c1cc2n(n1)CCN(Cc1cnc(C(C)C)nc1)C2 [Example 203] |
| 32 | 50 | Cc1cccnc1-c1cc2n(n1)CCN(Cc1ccc(Cl)c(C)n1)C2 [Example 178] |
| 33 | 59 | Cc1cccnc1-c1cc2n(n1)CCN(Cc1c[nH]c3ccccc13)C2 [Example 147] |
| 22 | 66 | Cc1ccc(CN2CCn3nc(-c4ncccc4C)cc3C2)nc1C [Example 131] |
